This note sets out measurements from patent US20260125425A1, “Carrier Peptide Fragment and Use Thereof” (TOAGOSEI CO., LTD., priority 2022, published 2026).

In the test the test system is HeLa cells. The test can be described thus: cell membrane permeability in HeLa cells by flow cytometer. Type of test: cell-based, human. As to conditions: 20-hour incubation; for MFI (median fluorescence intensity): 10 µM in culture solution, 0.5% DMSO, 37° C., FL2 detector. The procedure:
As the eukaryotic cells, HeLa cells (established cell strain derived from a human cervical cancer cell) were used and the cell membrane permeability of the sample 1 was evaluated. In Example 1, the prepared sample solution I was used, and in Example 12, the FAM solution was used.
The HeLa cell was cultured in 10% fetal bovine serum (FBS)-containing Dulbecco's modified Eagle's medium (DMEM (Cat No. 044-29765, manufactured by FUJIFILM Wako Pure Chemical Corporation)), which is a culture medium.
The HeLa cell that adhered to a culture plate was cleaned with PBS and then, a 0.25%-trypsin/EDTA solution was added thereto, and incubation was performed for three minutes at 37° C. After the incubation, the aforementioned 10% FBS-containing DMEM was added to deactivate trypsin and then, five-minute centrifugal separation was performed at 150×g to precipitate the cells. After the supernatant generated by the centrifugal separation was removed, the 10% FBS-containing DMEM was added to the precipitate (cell pellet) to prepare a cell suspension of about 2×10^5 cells/mL. The cell suspension was added by 1 mL to a well of a commercially available six-hole (well) plate (manufactured by AGC TECHNO GLASS Co., Ltd.) so as to seed the cell (about 2× 10^5 cells/well). In addition, the 2 mM sample solution 1 was diluted with the 10% FBS-containing DMEM to prepare the sample solution 1 in which the concentration of the sample 1 was 20 μM. […]
Regarding the obtained cells (cell pellet), the cell membrane permeability of the sample 1 was analyzed using a flow cytometer. […]
Using the aforementioned flow cytometer, gating based on forward scatter (FSC) and side scatter (SSC) was performed to set a gate about a cell group to be analyzed, and the fluorescence intensity was measured about the cell group in this gate. […] The fluorescence intensity was measured using a fluorescence detector FL2 of the flow cytometer (optimum detection wavelength around 543 nm) capable of detecting the fluorescence wavelength of FAM. […]
On the technique in general: In flow cytometry, cells or beads pass a laser one at a time.

Primed or numbered codes have the meaning given here. FAM″ = C-terminal FAM dye

In the case of “5 (6)-carboxyfluorescein [Example 2, reference compound]”, the “MFI (median fluorescence intensity)” value is recorded as 10.6.

Take “Ac-RKLAVYWSTYKRSR-FAM (Ac-RKLAVYWSTYKRSR-{FAM″}) [Example 1]”: the “MFI (median fluorescence intensity)” value is 14.5. Further, under “10 µM, compared to FAM alone (Example 2)”, the “flow cytometer histogram (FIG. 1), cell membrane permeability” value is listed as “shifted to the right side compared to the histogram according to Example 2”.
